# Counter-ions that a name gives are not always drawn. Like-named read-outs stand apart in the source and are kept apart here.
# Tests used:
# [1] = tested on: HL-60, MV4-11 and OCI-AML3 leukemic cell lines; test: Normalized cell number of leukemic cell lines after 72 h incubation (Examples 1, 3); format: cell-based, human; settings: 10 μM
# Experimental: All three lines are leukemic cell lines. […] Each condition had three replicates.
# The dopamine receptor antagonist and phenothiazine-related compound chlorpromazine was also investigated for effects on the AML cell lines HL-60, MV4-11 and OCI-AML3. Testing was performed as set out in Example 1.
# [2] = tested on: AML cell lines HL-60, OCI-AML2 and OCI-AML3
# Experimental: All three lines are leukemic cell lines. HL-60 was derived from promyelocytic AML whereas MV 4-11 and OCI-AML3 are representative of AML. Each compound was incubated with the cells for 72 h. The control was DMSO (ie the vehicle used for the compound) for 72 h. Each condition had three replicates.
# A series of dopamine receptor agonists, D3-antagonists, DR1 & 5-antagonists and multi-receptor antagonists were tested for cytotoxicity against three AML cell lines HL-60, OCI-AML2 and OCI-AML3. Testing was performed as set out in Example 1.
# [3] = tested on: AML-OCI2 and AML-OCI3 cell lines; test: Volumetric cell counting of AML cell lines treated with DR antagonists and agonists; format: cell-based, human; settings: 72 h, serum-free conditions
# Experimental: Volumetric Cell Counting. The number of AML-OCI2 and AML-OCI3 cells present after 72 h treatment with DR antagonists (FIG. 16b) and agonist (FIG. 16c-d) were counted by measuring the number of events within a fixed volume following the grating strategy defined by forward scatter and side scatter clustering, 7AAD− and Hoechst+.
# Due to the bioavailability of dopamine in fetal bovine serum (FBS) (Little et al., 2002), serum-free conditions were employed to assess the role of DRs in AML.
# [4] = tested on: v1H9-Oct4-GFP neoplastic hPSC; test: Chemical screening of neoplastic hPSC reporter line (GFP / Hoechst, loss of pluripotency); format: cell-based, human; settings: for activity at 10 µM: read-out: Hoechst % residual activity (% RA); for hit in extended screen (loss of pluripotency): 2446 compound screen, reduced mean GFP intensity and cell count
# Experimental: In Vitro Culture Platform for Normal and Neoplastic hPSCs. Chemical screens involved v1H9-Oct4-GFP cells seeded at 5,000 cells per well in mouse embryonic fibroblast conditioned media (MEFCM) supplemented with 8 ng/ml bFGF. 24 hours later the media was exchanged for MEFCM with compounds at 10 μM and 0.1% DMSO, 0.1% DMSO (−BMP4) or 100 ng/ml of BMP4 and 0.1% DMSO (+BMP4) for 48 hours before being exchanged with fresh media with compound for a further 24 h (total compound treatment time 72 h) prior to being fixed and prepared for automated imaging and plate reader analysis. Confluent H9 & fibroblast-derived iPSC were seeded at 10,000 cells per well in MEFCM supplemented with 8 ng/ml bFGF. 24 hours later the cells were treated with compounds at 10 μM and 0.1% DMSO, 0.1% DMSO (−BMP4) or 100 ng/ml of BMP4 and 0.1% DMSO (+BMP4). Fresh MEFCM supplemented with compounds was exchanged daily for 5 days. On day 5, hPSC's were fixed and prepared for automated imaging and plate reader analysis. See supplementary experimental procedures for further details.
# Imaging Neoplastic hPSC. Cells were fixed in 2% paraformaldehyde and stained with 10 μg/mL Hoechst 33342 (Invitrogen) with a Combi Multidrop Dispenser (Thermo). For experiments that involved Oct4 immunocytochemistry, a monoclonal antibody for Oct4 (BD) was used along with an Alexa-Fluor-647 secondary (Invitrogen). Immunocytochemical staining was performed by a Janus automated liquid handler (Perkin Elmer). Images were acquired at 10× N.A with an Arrayscan HCS VTI Reader (Cellomics) by means of epi-fluorescence illumination and standard filter sets.
# Image Analysis. Image analysis was performed using custom scripts in Acapella software (Perkin Elmer). Nuclear objects were segmented from the Hoechst signal. For neoplastic cell lines, object intensity analysis was performed on GFP positive cells only. For normal cell lines, the fraction of Alexa-Fluor-647-positive cells was quantified. Images and well-level data were stored and analysed in a Columbus Database (Perkin Elmer) and further data analysis, compounds registration and hit identification in ActivityBase (IDBS).
# These Collections have been previously scrutinized in numerous other mammalian cell lines (Diallo et al., 2010; Shoemaker, 2006).
# [5] = tested on: p53 and p21 in neoplastic hPSCs; test: p53 and p21 accumulation in neoplastic hPSCs; format: cell-based, human; settings: 24 h; 10 μM etoposide, 10 μM thioridazine, BMP4
# Description: Antibodies. Antibodies used for immunocytochemistry were the following: Oct3/4 (BD Trunsduction Laboratories, cat#611203), Sox2 (R&D, cat#AF2018). To detect human hematopoietic cells, Pacific Blue-, PE-, APC- or FITC labeled anti-human CD45 was used (BD Biosciences). FITC anti-CD33, PE anti-CD13, FITC anti-CD41a, FITC anti-HLA DR, and PE anti-CD19 antibodies were obtained from BD Pharmingen. PE anti-CD14, PE anti-CD15 and PE anti-GlyA were acquired from Immunotech Beckman Coulter. To determine pluripotency, PE anti-SSEA3 (BD Biosciences) and PE- or AlexaFluor488 anti-Oct4 (BD Biosciences). Rabbit anti-human dopamine receptor antibodies; DRD1 (Cat#324390), DRD2 (Cat#324393), DRD3 (Cat#324402), DRD4 (Cat#324405) and DRD5 (Cat#324408) were sourced from EMD Chemical. Anti-rabbit Alexa-Fluor-488 (Molecular Probes) was used as the secondary antibody. Primary anti-p53 (Cat#2527) and anti-p21 (Cat#2947) rabbit IgG sourced from Cell Signaling Technology were used to stain fixed and permeabilized cells. Anti-rabbit alexa-Fluor-546 (Molecular Probes) was used as the secondary antibody.
# AML patient blast cells = test: Methylcellulose colony-forming assay, AML patient blast-CFU; format: cell-based, human
# Experimental: (§1) AML/HPSC Cell Culture. AML cell lines, namely, OCI-AML2 (M4), OCI-AML3 (M4), HL-60 (M2) and MV-4-11(M5) were cultured in RPMI (Gibco) supplemented with 5% heated-inactivated FBS (HyClone). For DR agonist studies with R(+)-7-Hydroxy-DPAT hydrobromide (Sigma), serum-free conditions were employed instead due to the prevalence of dopamine in FBS (Little et al., 2002). AML patient blasts were cultured in IMDM supplemented with 5% heated inactivated FBS (HyClone), 5 ng/mL IL3 (R&D systems), 5×10^−5 M β-mercaptoethanol (Sigma) and BIT (StemCell Technologies). HSC media contained IMDM supplemented with 1% BSA (Sigma), 100 ng/mL SCF (R&D systems), 100 ng/mL Flt-3L (R&D systems) and 20 ng/mL TPO (R&D systems). Patient HSPC and AML samples were treated with compound or DMSO-vehicle (0.1%) for 24 h prior to CFU plating or xenotransplantation studies.
# (§2) Methylcellulose Colony-Forming Assay. AML patient or CB lin− cells were cultured 24 hours in the presence of compound or DMSO-vehicle (0.1%) control. AML cells were plated at 50 000 cells/mL in Methocult GF H4434 (Stem Cell Technologies). CB lin− cells were plated at 1000 cells/mL in Methocult GF H4434 (Stem Cell Technologies). Colonies were scored after 14 days of culture using standard morphological criteria.
# [6] = tested on: neoplastic hPSCs (v1H9-Oct4-GFP); test: Flow cytometry of Oct4 in neoplastic hPSCs; format: cell-based, human
# [7] = tested on: AML LSCs (CD45+CD33+ blast engraftment); test: Xenotransplantation of compound-treated AML cells into NSG mice; format: in vivo; settings: 10 μM, 24 h ex vivo treatment
# Experimental: Xenotransplantation Assays. NOD.Cg-Prkdc^scid II2rg^tm1Wjl/SzJ adult mice (NSG) were sub-lethally irradiated with 315 rads 24 hours prior transplantation. 0.8-1.0×10^7 AML MNCs or 1.5-1.8×10^5 CB lin-hematopoietic cells treated with compound or DMSO-vehicle for 24 h were injected via tail vein (IV). After 6-10 weeks, animals were culled, and the BM and spleen were analyzed for the presence of human cells by flow cytometry (LSRII, BD) and data was analyzed using FlowJo software (Tree Star Inc). For secondary HSPC transplants, equal number of engrafted human cells from CB lin− transplants were injected IV in adult irradiated NSG mice as described for primary transplants.
# To delineate whether the inhibition of AML-blasts detected in vitro was due to the compounds affecting the neoplastic stem cell compartment, xenotransplantation studies (Dick, 2008) that functionally define LSCs and hematopoietic stem cells (HSCs) were conducted (FIG. 12).
# [8] = tested on: hematopoietic stem and progenitor cells (HSPC, CB lin-); test: Methylcellulose colony-forming assay, HSPC (CB lin-)
# Experimental: as §1, §2
# [9] = Homo sapiens, 10 μM, 590 compound screen
molecule,measurement,setting,value
"CN(C)CCCN1c2ccccc2Sc2ccc(Cl)cc21 [chlorpromazine, Chlorpromazine hydrochloride]",normalized cell number / toxicity,[1],toxic
same,cytotoxicity of AML cell lines,[2],significant effect
same,cell count,"[2]; 72 h, relative to control",eradicate the AML cell lines
same,number of AML cells,[3],reduced the number of AML cells
"Br.CCCN(CCC)[C@@H]1CCc2ccc(O)cc2C1 [7OH-DPAT, R(+)-7-Hydroxy-DPAT hydrobromide]",number of AML cells,[3],increased the number of AML cells
Cn1cnc([N+](=O)[O-])c1Sc1ncnc2nc[nH]c12 [azathioprine],activity at 10 µM,[4]; [9],> 30%
CN1CCN(CCCN2c3ccccc3Sc3ccc(Cl)cc32)CC1 [prochlorperazine],hit in extended screen (loss of pluripotency),[4],hits
COc1cc([C@@H]2c3cc4c(cc3[C@@H](O[C@@H]3O[C@@H]5CO[C@@H](C)O[C@H]5[C@H](O)[C@H]3O)[C@H]3COC(=O)[C@H]23)OCO4)cc(OC)c1O [etoposide],accumulation of cell stress marker p53,[5],high levels
same,accumulation of p21,[5],high levels
CNC1CC(c2ccc(Cl)c(Cl)c2)c2ccccc21 (stereo not shown) [indatraline],activity at 10 µM,[4]; Homo sapiens,> 30%
"Nc1ccn([C@@H]2O[C@H](CO)[C@@H](O)[C@@H]2O)c(=O)n1 [AraC, Arabinofuranosyl Cytidine]",effective concentration (ECArac),"AML patient blast cells; concentration that reduced AML-blast-CFU while retaining HSPC function, single drug",100 nM
"Oc1cc2c(cc1O)[C@@H](c1ccccc1)CNCC2 [SKF38393, (R)-(+)-SKF-38393 hydrochloride]",number of AML cells,[3],significant reduction
OC(c1cc(C(F)(F)F)nc2c(C(F)(F)F)cccc12)C1CCCCN1 (stereo not shown) [mefloquine],activity at 10 µM,[4]; [9],> 30%
same,EC50,"[4]; Homo sapiens, dose response, v1H9-Oct4-GFP, read-out: EC50 (reduction in GFP intensity)",< 10 µM
same,cell number,[6],reductions
same,levels of Oct4,[6],reductions
same,AML-blast CFU formation,"AML patient blast cells; dose not stated in the sentence (0.1, 1, 10 μM tested)",reduced
same,leukemic disease-initiating AML LSC capacity,[7],ineffective
OCCN1CCN(CCCN2c3ccccc3Sc3ccc(C(F)(F)F)cc32)CC1 [fluphenazine],hit in extended screen (loss of pluripotency),[4],hits
CC[C@@H](C(=O)[C@@H](C)[C@@H](O)[C@H](C)[C@@H]1O[C@@H]([C@@H](CC)C(=O)O)CC[C@@H]1C)[C@H]1O[C@]2(C=C[C@@H](O)[C@]3(CC[C@@](C)([C@H]4CC[C@](O)(CC)[C@H](C)O4)O3)O2)[C@H](C)C[C@@H]1C [salinomycin],HSPC CFU potential,[8],reduced
same,AML-blast CFU potential,AML patient blast cells; 1 μM,reduced
same,AML-blast CFU potential,AML patient blast cells; 10 μM,reduced
"CN1CCN(C2=Nc3cc(Cl)ccc3Nc3ccccc32)CC1 [clozapine, Clozapine]",cytotoxicity of AML cell lines,[2],significant effect
"BMP4: differentiation control, 100 ng/ml of BMP4 (protein, UniProt P12644 293-408, looked up) Bone morphogenetic protein 4: SPKHHSQRARKKNKNCRRHSLYVDFSDVGWNDWIVAPPGYQAFYCHGDCPFPLADHLNSTNHAIVQTLVNSVNSSIPKACCVPTELSAISMLYLDEYDKVVLKNYQEMVVEGCGCR",accumulation of cell stress marker p53,[5],no accumulation
same,accumulation of p21,[5],no accumulation
